Source: patent US20230190754A1, “Therapeutic combinations for the treatment of Progressive Fibrosing interstitial lung diseases” (Boehringer Ingelheim International GmbH, priority 2021, published 2023)

Tested on: IPF patients
Assay: Phase II clinical trial in IPF patients: Treatment Emergent Adverse Events (safety/tolerability), up to 13 weeks
Protocol: The participants were divided into 2 groups by chance (the “active agent group” and the “placebo group”). […] One 12 mg placebo tablet and one 6 mg placebo tablet (both containing no active ingredient, see Table 1) was administered orally to the patients of the second group twice daily (b.i.d.).
The “active agent group” and the “placebo group” were further distributed to two different groups regarding background medication: the “AF-group” (“antifibrotic background medication group”) and the “Non-AF-group” (“no antifibrotic background medication group”). […] The combination of both nintedanib and pirfenidone as background medication was not allowed in the “AF-group”.
The trial was a randomised, double-blind, placebo-controlled parallel group study.

In the case of [O-][S@+]1CCc2nc(N3CCC(c4ncc(Cl)cn4)CC3)nc(NC3(CO)CCC3)c21 [Comp. of form. III], the “AE: Metabolism and nutrition disorders, patients n” value (Non-AF+AF total, 18 mg b.i.d.) is reported as 4, the “AE: Musculoskeletal and connective tissue disorders, patients %” value (Non-AF+AF total, 18 mg b.i.d.) is reported as “(5.2) %” and the “AE: Musculoskeletal and connective tissue disorders, patients n” value (Non-AF+AF total, 18 mg b.i.d.) is reported as 5. For the same compound, the “AE: Nasopharyngitis, patients %” value (Non-AF+AF total, 18 mg b.i.d.) was “(4.1) %”, the “AE: Nasopharyngitis, patients n” value (Non-AF+AF total, 18 mg b.i.d.) was 4 and the “AE: Nausea, patients %” value (Non-AF+AF total, 18 mg b.i.d.) was “(3.1) %”. For the same compound, the “AE: Nausea, patients n” value (Non-AF+AF total, 18 mg b.i.d.) was 3, the “AE: Nervous system disorders, patients %” value (Non-AF+AF total, 18 mg b.i.d.) was “(13.4) %” and the “AE: Nervous system disorders, patients n” value (Non-AF+AF total, 18 mg b.i.d.) was 13. For the same compound, the “AE: Oedema peripheral, patients %” value (Non-AF+AF total, 18 mg b.i.d.) was “(2.1) %”, the “AE: Oedema peripheral, patients n” value (Non-AF+AF total, 18 mg b.i.d.) was 2 and the “AE: Pyrexia, patients %” value (Non-AF+AF total, 18 mg b.i.d.) was “(2.1) %”. For the same compound, the “AE: Pyrexia, patients n” value (Non-AF+AF total, 18 mg b.i.d.) was 2, the “AE: Respiratory, thoracic and mediastinal disorders, patients %” value (Non-AF+AF total, 18 mg b.i.d.) was “(14.4) %” and the “AE: Respiratory, thoracic and mediastinal disorders, patients n” value (Non-AF+AF total, 18 mg b.i.d.) was 14. For the same compound, the “AE: Rhinorrhoea, patients %” value (Non-AF+AF total, 18 mg b.i.d.) was “(2.1) %”, the “AE: Rhinorrhoea, patients n” value (Non-AF+AF total, 18 mg b.i.d.) was 2 and the “AE: Vomiting, patients %” value (Non-AF+AF total, 18 mg b.i.d.) was “(3.1) %”. The “AE: Vomiting, patients n” value (Non-AF+AF total, 18 mg b.i.d.) was 3, the “AE: Weight decreased, patients %” value (Non-AF+AF total, 18 mg b.i.d.) was “(3.1) %” and the “AE: Weight decreased, patients n” value (Non-AF+AF total, 18 mg b.i.d.) was 3. For the same compound, the “AEs leading to discontinuation of trial drug, patients %” value (Non-AF+AF total, 18 mg b.i.d.) was “(13.4) %”, the “AEs leading to discontinuation of trial drug, patients n” value (Non-AF+AF total, 18 mg b.i.d.) was 13 and the “Any AE, patients n” value (Non-AF+AF total, 18 mg b.i.d.) was 67. For the same compound, the “Diarrhoea leading to discontinuation of trial treatment, patients %” value (Non-AF+AF total, 18 mg b.i.d.) was “(3.1) %”, the “Diarrhoea leading to discontinuation of trial treatment, patients n” value (Non-AF+AF total, 18 mg b.i.d.) was 3 and the “Dyspepsia leading to discontinuation of trial treatment, patients %” value (Non-AF+AF total, 18 mg b.i.d.) was “(1.0) %”. The “Dyspepsia leading to discontinuation of trial treatment, patients n” value (Non-AF+AF total, 18 mg b.i.d.) was 1, the “Gastrointestinal disorders leading to discontinuation of trial treatment, patients %” value (Non-AF+AF total, 18 mg b.i.d.) was “(5.2) %” and the “Gastrointestinal disorders leading to discontinuation of trial treatment, patients n” value (Non-AF+AF total, 18 mg b.i.d.) was 5. For the same compound, the “SAE: COPD, patients %” value (Non-AF+AF total, 18 mg b.i.d.) was “(1.0) %”, the “SAE: COPD, patients n” value (Non-AF+AF total, 18 mg b.i.d.) was 1 and the “SAE: Cardiac disorders, patients %” value (Non-AF+AF total, 18 mg b.i.d.) was “(1.0) %”. The “SAE: Cardiac disorders, patients n” value (Non-AF+AF total, 18 mg b.i.d.) was 1, the “SAE: Cardiac failure congestive, patients %” value (Non-AF+AF total, 18 mg b.i.d.) was “(1.0) %” and the “SAE: Cardiac failure congestive, patients n” value (Non-AF+AF total, 18 mg b.i.d.) was 1. For the same compound, the “SAE: Condition aggravated, patients %” value (Non-AF+AF total, 18 mg b.i.d.) was “(2.1) %”, the “SAE: Condition aggravated, patients n” value (Non-AF+AF total, 18 mg b.i.d.) was 2 and the “SAE: Covid-19 pneumonia, patients %” value (Non-AF+AF total, 18 mg b.i.d.) was “(1.0) %”. For the same compound, the “SAE: Covid-19 pneumonia, patients n” value (Non-AF+AF total, 18 mg b.i.d.) was 1, the “SAE: Dyspnoea, patients %” value (Non-AF+AF total, 18 mg b.i.d.) was “(1.0) %” and the “SAE: Dyspnoea, patients n” value (Non-AF+AF total, 18 mg b.i.d.) was 1. The “SAE: General disorders and administration side conditions, patients %” value (Non-AF+AF total, 18 mg b.i.d.) was “(2.1) %”, the “SAE: General disorders and administration side conditions, patients n” value (Non-AF+AF total, 18 mg b.i.d.) was 2 and the “SAE: Infections and Infestations, patients %” value (Non-AF+AF total, 18 mg b.i.d.) was “(1.0) %”. The “SAE: Infections and Infestations, patients n” value (Non-AF+AF total, 18 mg b.i.d.) was 1, the “SAE: Lung neoplasm, patients %” value (Non-AF+AF total, 18 mg b.i.d.) was “(1.0) %” and the “SAE: Lung neoplasm, patients n” value (Non-AF+AF total, 18 mg b.i.d.) was 1. For the same compound, the “SAE: Neoplasms benign, malignant and unspecified, patients %” value (Non-AF+AF total, 18 mg b.i.d.) was “(1.0) %”, the “SAE: Neoplasms benign, malignant and unspecified, patients n” value (Non-AF+AF total, 18 mg b.i.d.) was 1 and the “SAE: Nervous system disorders, patients %” value (Non-AF+AF total, 18 mg b.i.d.) was “(1.0) %”. The “SAE: Nervous system disorders, patients n” value (Non-AF+AF total, 18 mg b.i.d.) was 1, the “SAE: Peripheral nerve paresis, patients %” value (Non-AF+AF total, 18 mg b.i.d.) was “(1.0) %” and the “SAE: Peripheral nerve paresis, patients n” value (Non-AF+AF total, 18 mg b.i.d.) was 1. The “SAE: Respiratory, thoracic and mediastinal disorders, patients %” value (Non-AF+AF total, 18 mg b.i.d.) was “(1.0) %”, the “SAE: Respiratory, thoracic and mediastinal disorders, patients n” value (Non-AF+AF total, 18 mg b.i.d.) was 1 and the “SAE: Vascular disorders, patients %” value (Non-AF+AF total, 18 mg b.i.d.) was “(1.0) %”. The “SAE: Vascular disorders, patients n” value (Non-AF+AF total, 18 mg b.i.d.) was 1, the “SAE: Vasculitis, patients %” value (Non-AF+AF total, 18 mg b.i.d.) was “(1.0) %” and the “SAE: Vasculitis, patients n” value (Non-AF+AF total, 18 mg b.i.d.) was 1. For the same compound, the “Serious AEs (patients with ≥1 SAE), patients %” value (Non-AF+AF total, 18 mg b.i.d.) was “(6.2) %”, the “Serious AEs (patients with ≥1 SAE), patients n” value (Non-AF+AF total, 18 mg b.i.d.) was 6 and the “Severe AEs, patients %” value (Non-AF+AF total, 18 mg b.i.d.) was “(4.1) %”. The “Severe AEs, patients n” value (Non-AF+AF total, 18 mg b.i.d.) was 4, the “Vomiting leading to discontinuation of trial treatment, patients %” value (Non-AF+AF total, 18 mg b.i.d.) was “(1.0) %” and the “Vomiting leading to discontinuation of trial treatment, patients n” value (Non-AF+AF total, 18 mg b.i.d.) was 1. For the same compound, the “Any AE, patients %” value (Non-AF+AF total, 18 mg b.i.d., listed as Compound of formula III) was “(69.1) %”, the “Any AE, patients %” value (Non-AF+AF total, 18 mg b.i.d., listed as active agent) was 67% and the “Abdominal Pain, %” value (Non-AF, N = 48) was “(2.1) %”. For the same compound, the “Asthenia, %” value (Non-AF, N = 48) was “(6.3) %”, the “Bronchitis, %” value (Non-AF, N = 48) was “(2.1) %” and the “Constipation, %” value (Non-AF, N = 48) was “(2.1) %”. For the same compound, the “Cough, %” value (Non-AF, N = 48) was “(6.3) %”, the “Decreased appetite, %” value (Non-AF, N = 48) was “(2.1) %” and the “Diarrhoea, %” value (Non-AF, N = 48) was “(16.7) %”. For the same compound, the “Dizziness, %” value (Non-AF, N = 48) was “(2.1) %”, the “Dyspepsia, %” value (Non-AF, N = 48) was “(6.3) %” and the “Dyspnoea, %” value (Non-AF, N = 48) was “(6.3) %”. The “Fatigue, %” value (Non-AF, N = 48) was “(4.2) %”, the “Flatulence, %” value (Non-AF, N = 48) was “(6.3) %” and the “Gastrointestinal disorders, %” value (Non-AF, N = 48) was “(27.1) %”. The “General Disorders and Administration Side conditions, %” value (Non-AF, N = 48) was “(18.8) %”, the “Headache, %” value (Non-AF, N = 48) was “(6.3) %” and the “Infections and infestations, %” value (Non-AF, N = 48) was “(14.6) %”. For the same compound, the “Investigations, %” value (Non-AF, N = 48) was “(10.4) %”, the “Metabolism and nutrition disorders, %” value (Non-AF, N = 48) was “(2.1) %” and the “Musculoskeletal and connective tissue disorders, %” value (Non-AF, N = 48) was “(4.2) %”. The “Nausea, %” value (Non-AF, N = 48) was “(4.2) %”, the “Nervous system disorders, %” value (Non-AF, N = 48) was “(8.3) %” and the “Oedema peripheral, %” value (Non-AF, N = 48) was “(2.1) %”. For the same compound, the “Pyrexia, %” value (Non-AF, N = 48) was “(2.1) %”, the “Respiratory, thoracic and mediastinal disorders, %” value (Non-AF, N = 48) was “(16.7) %” and the “Rhinorrhoea, %” value (Non-AF, N = 48) was “(2.1) %”. For the same compound, the “Vomiting, %” value (Non-AF, N = 48) was “(2.1) %”, the “Weight decreased, %” value (Non-AF, N = 48) was “(4.2) %” and the “AE resulting in death, patients %” value (Non-AF-group, 18 mg b.i.d.) was “(2.1) %”. The “AE resulting in death, patients n” value (Non-AF-group, 18 mg b.i.d.) was 1, the “AE: Abdominal pain, patients %” value (Non-AF-group, 18 mg b.i.d.) was “(2.1) %” and the “AE: Abdominal pain, patients n” value (Non-AF-group, 18 mg b.i.d.) was 1. The “AE: Asthenia, patients %” value (Non-AF-group, 18 mg b.i.d.) was “(6.3) %”, the “AE: Asthenia, patients n” value (Non-AF-group, 18 mg b.i.d.) was 3 and the “AE: Bronchitis, patients %” value (Non-AF-group, 18 mg b.i.d.) was “(2.1) %”. For the same compound, the “AE: Bronchitis, patients n” value (Non-AF-group, 18 mg b.i.d.) was 1, the “AE: Constipation, patients %” value (Non-AF-group, 18 mg b.i.d.) was “(2.1) %” and the “AE: Constipation, patients n” value (Non-AF-group, 18 mg b.i.d.) was 1. The “AE: Cough, patients %” value (Non-AF-group, 18 mg b.i.d.) was “(6.3) %” and the “AE: Cough, patients n” value (Non-AF-group, 18 mg b.i.d.) was 3.
